Measured values as given in patent US10406385B2 (Northwestern University, priority 2014, dated 2019).

Experiments:
injured skin = conditions: topical application at concentrations of 2-5%; cited from earlier work
[1] = no adverse reactions in any species even at large doses; cited from earlier work
[2] = tested on: Human umbilical vein endothelial cells (HUVEC); test: Effect of panthenol citrate oligomers on cell viability, HUVEC; assay type: cell-based; conditions: higher concentrations (1 mg/ml), 24 hours
Experimental: Human umbilical vein endothelial cells (HUVEC) (Lonza, Walkersville, Md.), adult human epidermal keratinocytes (HEKa) (Gibco, Carlsbad, Calif.), and human dermal fibroblast (HDF) (Lonza, Walkersville, Md.) were cultured in SmGM-2, Keratinocyte-SFM and DMEM, respectively, in a humidified incubator equilibrated with 5% CO2 at 37° C. Cells were seeded at a density of 1×10^4 cells/ml in 96-well tissue culture plates.

CC(C)(CO)C(O)C(=O)NCCCO (racemic) [panthenol, DL-panthenol]
regeneration of injured skin (injured skin): stimulate the regeneration of injured skin | toxicities [1]: negligible

O=C(O)CC(O)(CC(=O)O)C(=O)O [citric acid, Citric acid]
HUVEC cell survival [2]: died within 24 hours
